Laboratory results as given in patent publication US6642217B2, “Triterpenes having human antifungal and antiyeast activity” (Naturtek, LLC, priority 2000, dated 2003).

Key:
[1] = tested on: Trichophyton mentagrophytes; experiment: Direct addition method, solid compound in Sabouraud dextrose agar; format: cell-based; set-up: key: +++: Maximum Fungal Growth; ++: Moderate Fungal Growth; +: Minimum Fungal Growth; +/−: Very little Fungal Growth; −: No Fungal Growth; settings: 4 mg/mL of agar; 12th day after inoculation
Summary of the method: (§1)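 Presence or absence of fungal growth was noted on alternate days, with the day-12 observation used. Test material, added undissolved to 45° C. Sabouraud dextrose medium to reach 4 mg/ml final, was solidified as slants before inoculation and incubation at 25-28° C.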

Trichophyton rubrum [2] = experiment: as above; format: cell-based; set-up: key: +++: Maximum Fungal Growth; ++: Moderate Fungal Growth; +: Minimum Fungal Growth; +/−: Very little Fungal Growth; −: No Fungal Growth; settings: 4 mg/mL of agar; 12th day after inoculation
Summary of the method: as §1

Microsporum canis [3] = experiment: as above; format: cell-based; set-up: key: +++: Maximum Fungal Growth; ++: Moderate Fungal Growth; +: Minimum Fungal Growth; +/−: Very little Fungal Growth; −: No Fungal Growth; settings: 4 mg/mL of agar; 12th day after inoculation
Summary of the method: as §1

Pityrosporum ovale [4] = experiment: as above; format: cell-based; set-up: key: +++: Maximum Fungal Growth; ++: Moderate Fungal Growth; +: Minimum Fungal Growth; +/−: Very little Fungal Growth; −: No Fungal Growth; settings: 4 mg/mL of agar; 12th day after inoculation
Summary of the method: as §1

Microsporum gypseum [5] = experiment: as above; format: cell-based; set-up: key: +++: Maximum Fungal Growth; ++: Moderate Fungal Growth; +: Minimum Fungal Growth; +/−: Very little Fungal Growth; −: No Fungal Growth; settings: 4 mg/mL of agar; 12th day after inoculation
Summary of the method: as §1

Epidermophyton floccosum [6] = experiment: as above; format: cell-based; set-up: key: +++: Maximum Fungal Growth; ++: Moderate Fungal Growth; +: Minimum Fungal Growth; +/−: Very little Fungal Growth; −: No Fungal Growth; settings: 4 mg/mL of agar; 12th day after inoculation
Summary of the method: as §1

Microsporum canis [7] = experiment: as above; format: cell-based; settings: against Microsporum canis
Method: (§2) Direct addition method. Sabouraud dextrose agar was prepared according to the manufacturer's instructions and 5.0 ml was dispensed in each 100×25 mm tube. The tubes were autoclaved. To each tube containing 5.0 ml of liquid agar at 45° C., 20 mg of solid test compound was added, to give a final concentration of 4 mg/ml. The agar was solidified in slants. The fungal cultures were then innoculated. The slants were incubated at 25-28 ° C. for 10-12 days, and the growth of the fungus was recorded every second day. The results in Table 2 indicate growth at the 12th day of inoculation.

Microsporum audouinni [8] = experiment: as above; format: cell-based, Microsporum audouinii; set-up: key to Fungal growth: +++: Maximum Fungal Growth; ++: Moderate Fungal Growth; +: Minimum Fungal Growth; +/−: Very little Fungal Growth; −: No Fungal Growth; settings: 4 mg/mL of agar; 12th day after inoculation
Summary of the method: as §1

Trichophyton tonsuran [9] = experiment: as above; format: cell-based, Trichophyton tonsurans; set-up: key: +++: Maximum Fungal Growth; ++: Moderate Fungal Growth; +: Minimum Fungal Growth; +/−: Very little Fungal Growth; −: No Fungal Growth; settings: 4 mg/mL of agar; 12th day after inoculation
Method: as §2

Pityrosporum ovale [10] = experiment: Direct addition into the Pityrosporum agar; format: cell-based; set-up: key to Pityrosporum ovale growth: +++: Maximum Growth; ++: Moderate Growth; +: Minimum Growth; +/−: Very Little Growth; −: No Growth; settings: for Pityrosporum ovale growth: 4 mg/ml in the agar, 18 hours after inoculation
Method: as §2, with “The slants were incubated at 25-28 ° C. for 10-12 days, and the growth of the fungus was recorded every second day. The results in Table 2 indicate growth at the 12th day of inoculation.” left out

[11] = tested on: Trichophyton mentagrophytes; experiment: Direct addition to liquid culture method, optical density at 600 nm; format: cell-based; settings: 25, 50 and 100 μg/ml; 12 days
Method: Direct addition to liquid culture method. Sabouraud dextrose broth was prepared according to the manufacturer's instructions, and 7.0 ml was dispensed into 100×25 mm tubes and autoclaved. To each tube containing 7.0 ml of liquid broth, the test compounds dissolved in DMSO were added to final concentrations of 25, 50, and 100 μg/ml. The tubes were then inoculated with 150 μl of a fungus suspension and incubated at 25-28° C. for 10-12 days. Growth was measured every second day by measuring optical density at 600 nm against a blank containing sterile broth.

Epidermophyton floccosum [12] = experiment: Agar dilution method, growth on Sabouraud dextrose agar slants; format: cell-based; set-up: key to Fungal growth: +++: Maximum Fungal Growth; ++: Moderate Fungal Growth; +: Minimum Fungal Growth; +/−: Very little Fungal Growth; −: No Fungal Growth; settings: 12th day after inoculation
Summary of the method: (§3)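 Autoclaved Sabouraud dextrose agar is cooled to 45 °C, dosed with compound from a DMSO solution, and solidified as slants. Fungi are then inoculated and the slants held at 25-28 °C for 10-12 days.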

Microsporum audouinni [13] = experiment: as above; format: cell-based, Microsporum audouinii; set-up: key: +++: Maximum Fungal Growth; ++: Moderate Fungal Growth; +: Minimum Fungal Growth; +/−: Very little Fungal Growth; −: No Fungal Growth; settings: 12th day after inoculation
Summary of the method: as §3

[14] = tested on: Trichophyton mentagrophyte; experiment: as above; format: cell-based, Trichophyton mentagrophytes; set-up: key to Fungal growth: +++: Maximum Fungal Growth; ++: Moderate Fungal Growth; +: Minimum Fungal Growth; +/−: Very little Fungal Growth; −: No Fungal Growth; settings: 12th day after inoculation
Summary of the method: as §3

Trichophyton rubrum [15] = experiment: as above; format: cell-based; set-up: key: +++: Maximum Fungal Growth; ++: Moderate Fungal Growth; +: Minimum Fungal Growth; +/−: Very little Fungal Growth; −: No Fungal Growth; settings: 12th day after inoculation
Summary of the method: as §3

Microsporum canis [16] = experiment: as above; format: cell-based; set-up: key: +++: Maximum Fungal Growth; ++: Moderate Fungal Growth; +: Minimum Fungal Growth; +/−: Very little Fungal Growth; −: No Fungal Growth; settings: 12th day after inoculation
Summary of the method: as §3

Pityrosporum ovale [17] = experiment: as above; format: cell-based; set-up: key: +++: Maximum Fungal Growth; ++: Moderate Fungal Growth; +: Minimum Fungal Growth; +/−: Very little Fungal Growth; −: No Fungal Growth; settings: 12th day after inoculation
Summary of the method: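 In this agar dilution format, DMSO solutions of compound went into liquid Sabouraud dextrose agar (45 °C), which was slanted and inoculated. Incubation ran 10-12 days at 25-28 °C.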

Microsporum gypseum [18] = experiment: as above; format: cell-based; set-up: key: +++: Maximum Fungal Growth; ++: Moderate Fungal Growth; +: Minimum Fungal Growth; +/−: Very little Fungal Growth; −: No Fungal Growth; settings: 12th day after inoculation
Summary of the method: as §3

Trichophyton rubrum [19] = experiment: Direct addition method, solid compound in Sabouraud dextrose agar; format: cell-based; set-up: key: +++: Maximum Fungal Growth; ++: Moderate Fungal Growth; +: Minimum Fungal Growth; +/−: Very Little Fungal Growth; −: No Fungal Growth; settings: 4 mg/mL of agar; 12th day after inoculation
Method: as §2

Trichophyton tonsuran [20] = experiment: Agar dilution method, growth on Sabouraud dextrose agar slants; format: cell-based, Trichophyton tonsurans; set-up: key: +++: Maximum Fungal Growth; ++: Moderate Fungal Growth; +: Minimum Fungal Growth; +/−: Very little Fungal Growth; −: No Fungal Growth; settings: 12th day after inoculation
Summary of the method: as §3

## C=C(C)[C@@H]1CC[C@]2(COC(=O)/C=C\C(=O)O)CC[C@]3(C)[C@H](CC[C@@H]4[C@@]5(C)CC[C@H](O)C(C)(C)[C@@H]5CC[C@]43C)[C@@H]12 [Betulin-28-maleate]
[1]
  Fungal growth: ++
Trichophyton rubrum [2]
  Fungal growth: ++
Microsporum canis [3]
  Fungal growth: −
Pityrosporum ovale [4]
  Fungal growth: −
Microsporum gypseum [5]
  Fungal growth: +++
Epidermophyton floccosum [6]
  Fungal growth: −
Microsporum canis [7]
  best anti-fungal or anti-yeast activity by the direct addition method: against Microsporum canis
Microsporum audouinni [8]
  Fungal growth: ++
Trichophyton tonsuran [9]
  Fungal growth: ++

## C=C(C)[C@@H]1CC[C@]2(C)CC[C@@]3(C)C(CCC4[C@@]5(C)CC[C@H](O)C(C)(C)C5CC[C@]43C)C12 (stereo partly drawn) [Lupeol, lup-20(29)-ene-3β-ol]
Trichophyton rubrum [2]
  Fungal growth: +
Microsporum canis [3]
  Fungal growth: +
Pityrosporum ovale [4]
  Fungal growth: −
Epidermophyton floccosum [6]
  Fungal growth: −
Microsporum audouinni [8]
  Fungal growth: +
Pityrosporum ovale [10]
  Pityrosporum ovale growth: +
[11]
  Growth inhibition in liquid culture (optical density, FIG. 1): inhibited the growth

## C[C@@H]1[C@H](O)[C@@H](C)/C=C/C=C/CC/C=C/C=C/C=C/C=C/C(O[C@H]2O[C@H](C)[C@@H](O)[C@H](N)[C@@H]2O)CC2O[C@](O)(CC(O)C(O)CCC(O)CC(O)CC(O)CC(=O)O[C@H]1C)CC(O)C2C(=O)O (stereo partly shown) [Nystatin, reference compound]
Epidermophyton floccosum [12]; 125 μg/ml
  Fungal growth: +/−
Epidermophyton floccosum [12]; 250 μg/ml
  Fungal growth: −
Epidermophyton floccosum [12]; 500 μg/ml
  Fungal growth: −
Epidermophyton floccosum [12]; 1000 μg/ml
  Fungal growth: −
Microsporum canis [3]
  Fungal growth: −
Pityrosporum ovale [4]
  Fungal growth: −
Epidermophyton floccosum [6]
  Fungal growth: −
Microsporum audouinni [13]; 125 μg/ml
  Fungal growth: −
Microsporum audouinni [13]; 250 μg/ml
  Fungal growth: −
Microsporum audouinni [13]; 500 μg/ml
  Fungal growth: −
Microsporum audouinni [13]; 1000 μg/ml
  Fungal growth: −
[14]; 125 μg/ml
  Fungal growth: +
[14]; 250 μg/ml
  Fungal growth: +
[14]; 500 μg/ml
  Fungal growth: −
[14]; 1000 μg/ml
  Fungal growth: −
Microsporum audouinni [8]
  Fungal growth: −
Trichophyton rubrum [15]; 125 μg/ml
  Fungal growth: +
Trichophyton rubrum [15]; 250 μg/ml
  Fungal growth: +
Trichophyton rubrum [15]; 500 μg/ml
  Fungal growth: +/−
Trichophyton rubrum [15]; 1000 μg/ml
  Fungal growth: −
Microsporum canis [16]; 125 μg/ml
  Fungal growth: +
Microsporum canis [16]; 250 μg/ml
  Fungal growth: +/−
Microsporum canis [16]; 500 μg/ml
  Fungal growth: −
Microsporum canis [16]; 1000 μg/ml
  Fungal growth: −
Pityrosporum ovale [17]; 125 μg/ml
  Fungal growth: +
Pityrosporum ovale [17]; 250 μg/ml
  Fungal growth: +/−
Pityrosporum ovale [17]; 500 μg/ml
  Fungal growth: −
Pityrosporum ovale [17]; 1000 μg/ml
  Fungal growth: −
Microsporum gypseum [18]; 125 μg/ml
  Fungal growth: +
Microsporum gypseum [18]; 250 μg/ml
  Fungal growth: +/−
Microsporum gypseum [18]; 500 μg/ml
  Fungal growth: −
Microsporum gypseum [18]; 1000 μg/ml
  Fungal growth: −
Pityrosporum ovale [10]; 4 mg/ml
  Growth inhibition of Pityrosporum ovale by the direct addition method: inhibits growth
Pityrosporum ovale [10]
  Pityrosporum ovale growth: +/−
Trichophyton rubrum [19]
  Fungal growth: +/−
Trichophyton tonsuran [20]; 125 μg/ml
  Fungal growth: +
Trichophyton tonsuran [20]; 250 μg/ml
  Fungal growth: +/−
Trichophyton tonsuran [20]; 500 μg/ml
  Fungal growth: −
Trichophyton tonsuran [20]; 1000 μg/ml
  Fungal growth: −
